Measured values reported in patent US8258098B2, “Antitumoral treatments” (Pharma Mar, S.A., priority 2006, dated 2012).
Where two headings read alike, the source gives them in different places.

Assays:
PC3 cells = test: MTS cytotoxicity assay, 72 hours, single agents and combinations with Aplidine; format: cell-based; details: read-out: IC50 (Molar)
Description: (§1) Day before plating cells all cultures were fed with fresh, complete growth media. On the harvest (plating) day cells were counted by Trypan Blue exclusion staining method (basic cell culture). Cells were harvested and seeded in 96 well microtiter plates at 10,000 cells per well in 190 μL of media and incubated for 24 hours to allow the cells to attach before drug addition. Cells were treated with the drugs and the cytotoxic effect was measured by the MTS Assay (Tetrazolium), which is a colorimetric method for determining the number of viable cells. After the 72 hours of incubation with drug, 25 μL of MTS+PMS solution was added to each microtiter well and incubated for 4 hours at 37° C. Plates were then removed from incubator and placed on plate shaker for 5 minutes (covered with aluminium foil for protection from light). Optical densities were read at 490 nm on spectrophotometer plate reader.
(§2) The microtiter plates were incubated for 72 hrs, at 5% CO2 and 37° C. The cytotoxic effect was measured by MTS Assay. Optical densities read at 490 nm. Normalized data was plotted and interpreted as described. Data was analysed as: • 1. Prism (Graphpad) software program was used to normalized the data to control values (100%=cell growth in the absence of agent (drug); 0%=blank control). • 2. Data normalized were plotted as scatter plots.
(§3) Conversely, antagonism was concluded when inhibition was lower than both maxima. […] Statistical significance was assessed by performing a student's t-test on the inhibition at each dose ratio versus the inhibition at the maximum for each drug.
(§4) As a visual aid, response values were plotted on a scatter plot with dose ratios given on the x-axis and % response values on the y-axis. […] In cases where response values at the two endpoints were approximately equivalent, points lying above or below this predicted line of additivity could be interpreted as representing antagonistic or synergistic drug interaction, respectively.

SKBR3 cells = test: as above; format: cell-based; details: read-out: IC50 (Molar)
Description: as §1, §2, §3, §4

MOLT3 cells = test: as above; format: cell-based; details: read-out: IC50 (Molar)
Description: as §1, §2, §3, §4

HL60 cells = test: as above; format: cell-based; details: read-out: IC50 (Molar)
Description: as §1, §2, §3, §4

MX1 cells = test: as above; format: cell-based; details: MX1, 72 hours drug exposure, read-out: IC50 (Molar)
Description: as §1, §2, §3, §4

A549 cells = test: as above; format: cell-based; details: A549, 72 hours drug exposure, read-out: IC50 (Molar)
Description: as §1, §2, §3, §4

HT29 cells = test: as above; format: cell-based; details: read-out: IC50 (Molar)
Description: as §1, §2, §3, §4

[1] = system: RPMI 8226 human myeloma cells; test: Antitumor efficacy against subcutaneous-implanted myeloma xenograft; format: in vivo, male, SCID mice; details: RPMI 8226 xenograft, median tumor weight; Aplidine 60 μg/kg/dose IP q1d × 9 day 18, 38; Bortezomib 0.35 mg/kg/dose IV
Description: (§5) The animals were housed in microisolator cages, up to five per cage in a 12-hour light/dark cycle. Six-weeks-old male, SCID mice were acclimated in the laboratories for one week prior to the experiment.
Each mouse received 2×10^7 cells resuspended in 0.2 mL of Matrigel®. […] Cells were harvested after four passages in culture. The cells were removed from the flasks, placed in 50-mL centrifuge tubes and centrifuged at 1,000 rpm for 10 minutes in a refrigerated centrifuge. The cell pellets were resuspended in fresh complete medium. The cell count and viability were determined with a Beckman Coulter VI CELL XR cell counter and viability analyzer. The cell suspension was recentrifuged, and the cell pellet was resuspended in Matrigel® at a cell density of 1.0×10^8 cells/mL and placed on wet ice.
The day of tumor cell inoculation was designated as Day 0. […] Those animals selected with tumors in the proper size range were assigned to four treatment groups so that the median tumor weights on the first day of treatment were as close to each other as possible. […]
Animals were observed daily and clinical signed were noted. The s.c. tumors were measured and the animals were weighed twice weekly starting with the first day of treatment, Day 18 after tumor cell inoculation.

U266B1 cell line = test: cells; format: cell-based; details: 72 h, read-out: IC50 (Molar)
Description: (§6) These cell lines were cultured in RPMI1640 medium with 10% FBS and 1% L-Glutamine. Each cell line was plated in a 96 well plates at 20,000 cell per well.
(§7) Each serial dilution was paired with 4 different concentrations of Bortezomib or Melphalan.
(§8) The plates were incubated for 3 days at 37° C. and 5% CO2. The plates were read using the Promega MTS assay system with MTS being metabolized by living cells turning into formazan which is […] at 490 nm wavelength. This is an indirect measure of cell viability. These were analyzed using the Softmax Pro program which determines cell viability based percent of control wells. This IC50 data was then transferred into the CalcuSyn program for combination index analysis. CalcuSyn compares IC50 the values of the drugs alone with that of the drugs in combination using an algorithm to determine a combination index.

RPMI-8226 cell line = test: cells; format: cell-based; details: Homo sapiens, RPMI-8226, 72 h, read-out: IC50 (Molar)
Description: as §6, §7, §8

H9 cells = test: MTS assay Example 2, single agents; format: cell-based; details: Homo sapiens, read-out: IC50 (Molar)
Description: (§9) The day before plating cells all cultures were fed with fresh, complete growth media. On the harvest (plating) day cells were counted by Trypan Blue exclusion staining method.
(§10) Cells were harvested and seeded in 96 well microtiter plates at 15,000 cells per well in 190 μl of media and incubated for 24 hours to allow the cells to attach before drug addition.
(§11) The cytotoxic effect was measured by the MTS Assay (Tetrazolium), which is a colorimetric method for determining the number of viable cells.
(§12) After 72 hours of incubation with tested agents 25 μl of MTS+PMS solution was added to each microtiter well and incubated for 4 hours at 37° C. Plates were then removed from incubator and placed on plate shaker for 5 minutes (covered with aluminum foil for protection from light). Optical densities were read at 490 nm on spectrophotometer plate reader. Data was analyzed as: • 1. Prism (Graphpad) software program was used to normalized the data to control values (100%=cell growth in the absence of agent (drug); 0%=blank control). • 2. Data normalized were plotted as scatter plots.

HUT78 cells = test: MTS assay Example 2, single agents; format: cell-based; details: Homo sapiens, read-out: IC50 (Molar)
Description: as §9, §10, §11, §12

MOLT-3 cells = test: MTS assay Example 2, single agents and combinations; format: cell-based; details: Homo sapiens; MOLT-3, MTS; read-out: IC50 (Molar)
Description: as §9, §10, §11, §12, §3
as §4, with “interaction” for “interaction,”

HUNS-1 cells = test: as above; format: cell-based; details: HuNS1; HUNS-1, MTS; read-out: IC50 (Molar)
Description: as §9, §10, §11, §12, §3
as §4, with “interaction” for “interaction,”

U937 cells = test: as above; format: cell-based; details: Homo sapiens, U-937, read-out: IC50 (Molar)
Description: as §9, §10, §11, §12, §3
as §4, with “interaction” for “interaction,”

RPMI 8226 cells = test: as above; format: cell-based; details: Homo sapiens; RPMI 8226, MTS; read-out: IC50 (Molar)
Description: as §9, §10, §11, §12, §3
as §4, with “interaction” for “interaction,”

K562 cells = test: as above; format: cell-based; details: Homo sapiens, read-out: IC50 (Molar)
Description: as §9, §10, §11, §12, §3
as §4, with “interaction” for “interaction,”

MC116 cells = test: as above; format: cell-based; details: Homo sapiens, read-out: IC50 (Molar)
Description: as §9, §10, §11, §12, §3
as §4, with “interaction” for “interaction,”

NCI-H929 cells = test: as above; format: cell-based; details: Homo sapiens, read-out: IC50 (Molar)
Description: as §9, §10, §11, §12, §3
as §4, with “interaction” for “interaction,”

RAMOS cells = test: as above; format: cell-based; details: Homo sapiens, read-out: IC50 (Molar)
Description: as §9, §10, §11, §12, §3
as §4, with “interaction” for “interaction,”

HL-60 cells = test: as above; format: cell-based; details: Homo sapiens; HL-60, MTS; read-out: IC50 (Molar)
Description: as §9, §10, §11, §12, §3
as §4, with “interaction” for “interaction,”

U266B-1 cells = test: as above; format: cell-based; details: U266B-1, MTS; read-out: IC50 (Molar)
Description: as §9, §10, §11, §12, §3
as §4, with “interaction” for “interaction,”

RL human lymphoma cells = test: Antitumor efficacy against subcutaneous-implanted lymphoma xenograft; format: in vivo; details: median tumor weight, Aplidine 60 μg/kg/dose IP q1d × 9 day 15, 28, Rituximab 20 mg/kg/dose IP q3d × 2 day 15, 22, 29, 36
From the text: The purpose of this study was to evaluate the antitumor efficacy of Aplidine when administered in combination with rituximab against subcutaneous-implanted RL human lymphoma cells in […], SCID mice.
as §5
Each mouse was inoculated s.c. near the right flank with RL human lymphoma cells from an in vitro cell culture using a 23-gauge needle. Each mouse received 1.0×10^7 cells resuspended in 0.2 mL of Matrigel®. […] The cell count was determined with a Coulter Model Z1 cell counter and viability was measured following propidium iodide staining and analyzed using a Beckman Coulter EPICS XL flow cytometer. […]
Animals were observed daily and clinical signed were noted. The s.c. tumors were measured and the animals were weighed twice weekly starting with the first day of treatment, Day 15. Tumor volume was determined by caliper measurements (mm) and using the formula for an ellipsoid sphere as described in Example 7.

Row | Compound | IC50 (PC3 cells; PC3, 72 hours drug exposure) [µM] | IC50 (SKBR3 cells; SKBR3, 72 hours drug exposure) [µM] | IC50 (MOLT3 cells; MOLT3, 72 hours drug exposure) [µM] | IC50 (HL60 cells; HL60, 72 hours drug exposure) [µM] | IC50 (MX1 cells) [µM] | IC50 (A549 cells) [µM] | IC50 (HT29 cells; HT29, 72 hours drug exposure) [µM] | also measured
1 | Nc1ccn([C@@H]2O[C@H](CO)[C@@H](O)[C@@H]2O)c(=O)n1 [AraC, cytosine arabinoside] | > 100 | > 100 | 0.22 | 10 | > 100 | > 100 | > 100 | 
2 | CC(C)C[C@H](NC(=O)[C@H](Cc1ccccc1)NC(=O)c1cnccn1)B(O)O [Bortezomib] |  |  |  |  |  |  |  | % T/C on day 27 [1]: 70%; % T/C on day 48 [1]: 67%; IC50 (U266B1 cell line; U2661, MTS): 16.6 µM; IC50 (RPMI-8226 cell line; RPMI8226, MTS): 0.00229 µM
3 | N[C@@H](Cc1ccc(N(CCCl)CCCl)cc1)C(=O)O [Melphalan] |  |  |  |  |  |  |  | IC50 (U266B1 cell line): 0.00316 µM; IC50 (RPMI-8226 cell line): 16.1 µM
4 | CCc1c2c(nc3ccc(O)cc13)-c1cc3c(c(=O)n1C2)COC(=O)[C@]3(O)CC [SN38, 7-ethyl-10-hydroxycamptothecin] | 46 | < 1e-05 | 1 | < 1 | 0.15 | 1300 | 0.12 | 
5 | COc1cc([C@@H]2c3cc4c(cc3[C@@H](O[C@@H]3O[C@@H]5CO[C@@H](C)O[C@H]5[C@H](O)[C@H]3O)[C@H]3COC(=O)[C@H]23)OCO4)cc(OC)c1O [VP16, etoposide] |  |  |  |  |  |  |  | IC50 (H9 cells): 0.73 µM; IC50 (HUT78 cells): 1.4 µM; IC50 (MOLT-3 cells): 0.024 µM; IC50 (HUNS-1 cells): 3.1 µM; IC50 (U937 cells): 0.44 µM; IC50 (RPMI 8226 cells): 0.37 µM; IC50 (K562 cells): 7.6 µM; IC50 (MC116 cells): 0.23 µM; IC50 (NCI-H929 cells): 2.4 µM; IC50 (RAMOS cells): 0.11 µM; IC50 (HL-60 cells): 2 µM; IC50 (U266B-1 cells): 5.9 µM
6 | N.N.[Cl][Pt][Cl] [cisplatin] | 87 | 7 | 0.57 | 12 | 170 | 6 | 720 | 
7 | COc1cccc2c1C(=O)c1c(O)c3c(c(O)c1C2=O)C[C@@](O)(C(=O)CO)C[C@@H]3O[C@H]1C[C@H](N)[C@H](O)[C@H](C)O1 [doxorubicin] |  |  |  |  |  |  |  | IC50 (PC3 cells; Homo sapiens, PC-3, PC3, 72 hours drug exposure): 11 µM; IC50 (SKBR3 cells; Homo sapiens, SK-BR-3, SKBR3, 72 hours drug exposure): 0.29 µM; IC50 (MOLT3 cells; Homo sapiens, MOLT-3, MOLT3, 72 hours drug exposure): 0.0069 µM; IC50 (HL60 cells; Homo sapiens, HL-60, HL60, 72 hours drug exposure): > 100 µM; IC50 (MX1 cells; Homo sapiens): > 100 µM; IC50 (A549 cells; Homo sapiens): 1.3 µM; IC50 (HT29 cells; Homo sapiens, HT-29, HT29, 72 hours drug exposure): > 100 µM
8 | Rituximab: Rituxan® (Rituximab), standard agent |  |  |  |  |  |  |  | % T/C on day 24 (RL human lymphoma cells): 95%; % T/C on day 38 (RL human lymphoma cells): 102%
9 | arsenic trioxide | 1200 | 100 | 3.7 | 20 | 97 | 420 | 80 | 
